# Assays:
# [1] = target: T1, GST-Plek2 (Homo sapiens, UniProt Q9NYT0); test: isothermal titration calorimetry (ITC) of NUP-17d and its enantiomers with Plek2; format: binding; conditions: PBS with 0.5% DMSO, 200 μM compound into 20 μM GST-Plek2
# T1 construct: made in house
# T1 sequence (Q9NYT0 1-353): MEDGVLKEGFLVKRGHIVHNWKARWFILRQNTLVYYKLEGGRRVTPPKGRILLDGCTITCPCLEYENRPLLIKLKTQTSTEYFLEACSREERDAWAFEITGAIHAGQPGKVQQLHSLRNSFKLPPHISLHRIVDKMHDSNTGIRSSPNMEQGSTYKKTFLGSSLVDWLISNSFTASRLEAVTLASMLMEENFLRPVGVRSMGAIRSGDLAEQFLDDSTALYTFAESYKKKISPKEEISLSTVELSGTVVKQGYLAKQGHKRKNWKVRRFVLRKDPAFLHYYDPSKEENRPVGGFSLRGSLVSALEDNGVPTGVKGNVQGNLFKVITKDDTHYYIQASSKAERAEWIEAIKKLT
# Procedure: (§1) FIG. 4. NUP-17 directly targets and binds to Plek2. (A) Plek2 was overexpressed in mouse fetal liver Ter119 negative erythroblasts. NUP-17 (40 μM) were added in the control cells and Plek2 overexpressed cells. Cell number was calculated 48 hours after culture. (B) Plek2 was overexpressed in Cos-7 cells. Phalloidin 647 was used to stain actin in the indicated cells. 10 μM of NUP-17 was used. (C) Quantitative analysis of B. (D) ITC experiments using the microCal ITC200 instrument. 200 μM NUP-17 was titrated into a solution of 20 μM GST control or GST-Plek2. *P<0.05; *** P<0.001. 17 represents NUP-17.
# (§2) FIG. 17. Isothermal titration calorimetry (ITC) experiments of NUP-17d and its enantiomers. -17-d: delta H=−1.9 kcal/mol delta S=+22.9 cal/molK; -17-1b: delta H=−2.2 kcal/mol delta S=+22.8 cal/molK; -17-2b: delta H=−1.5 kcal/mol delta S=+24.3 cal/molK; -17-1a: delta H=−5.3 kcal/mol delta S=+7.3 cal/molK; and -17-2a: delta H=−4.2 kcal/mol delta S=+13.9 cal/molK.
# (§3) To confirm that the inhibitory effect of NUP-17 on the proliferation and differentiation of fetal liver erythroid cells is due to Plek2 binding, we overexpressed Plek2 in the fetal liver cells and treated the cells with NUP-17. […] In addition, we also overexpressed Plek2 in Cos-7 cells, which induced prominent lamellipodia formation as previously reported (13).
# Biophysical Assays and Counter-Screening. To confirm the interaction of the optimized compounds with Plek2, we will perform isothermal calorimetry (ITC) using the recombinant protein GST-Plek2 or Flag-tagged Plek2 we have produced. Specifically, MicroCal ITC200 instrument (GE Healthcare) with the jacket temperature will set at 25° C. The protein and our compound solutions will be prepared in PBS with 0.5% DMSO. Titrations of 200 μM compound into 20 μM GST-Plek2 solutions will be sufficient for 15 injections of 2.5 μl each with 120 seconds spacing between injections and a mixing speed at 900 rpm. An initial 0.1 μl injection will subsequently be removed during data analysis. A control experiment will be performed by titrating 200 μM compound into a solution of 20 μM GST. […]
# [2] = test system: mouse fetal liver erythroid progenitors; test: Proliferation of mouse fetal liver erythroid progenitors cultured in erythropoietin containing medium (Plek2 functional screening system); format: cell-based; conditions: mouse fetal liver erythroblasts, Epo medium
# Procedure: FIG. 3. NUP-17 inhibits Plek2 function in fetal liver erythropoiesis. (A) Mouse Ter119 (a mature erythroid cell marker) negative erythroblasts were purified and cultured for two days (D0-D2). The protein levels of Plek2 and Hsc70 loading control were analyzed by a Western blot assay. (B) The structure of NUP-17. (C-D) The proliferation and enucleation (DNA negative) profiles of cells from A treated with different concentration of NUP-17 for 48 hours. (E) Simulated Plek2 DEP domain interaction with NUP-17 using Schrodinger software. Amino acids that are potentially critical for the interaction are highlighted in yellow. *P<0.05; ** P<0.01; *** P<0.001.
# as §1, with “200 μM NUP-17 was titrated into a solution of 20 μM GST control or GST-Plek2. *P<0.05; *** P<0.001. 17 represents NUP-17.” left out
# FIG. 5. […] (A) NUP-17d was analyzed for the inhibitory effects on fetal liver erythroblasts as in FIG. 3. […] (D) Quantitative analysis of C. **P<0.01; *** P<0.001. […]
# FIG. 11. […] Analogs of NUP-17d were analyzed for their effect on fetal liver erythroblast proliferation as in FIG. 3. […]
# [3] = test system: Plek2-overexpressed Cos-7 cells; test: Lamellipodia formation assay in Plek2-overexpressed Cos-7 cells (phalloidin actin stain); format: cell-based; conditions: 10 μM
# Procedure: as §1
# FIG. 5. Identification of a potent analog of NUP-17. (A) NUP-17d was analyzed for the inhibitory effects on fetal liver erythroblasts as in FIG. 3. Indicated doses were used. (B) The structure of NUP-17d. (C) Plek2 was overexpressed in Cos-7 cells. Phalloidin 647 was used to stain actin in the indicated cells. 10 μM of NUP-17 and NUP-17d were used. (D) Quantitative analysis of C. **P<0.01; *** P<0.001. 17 and 17d represent NUP-17 and NUP-17d, respectively.
# To confirm that the inhibitory effect of NUP-17 on the proliferation and differentiation of fetal liver erythroid cells is due to Plek2 binding, we overexpressed Plek2 in the fetal liver cells and treated the cells with NUP-17. […]
# [4] = target: T1, GST-Plek2; test: Isothermal titration calorimetry (ITC) binding to GST-tagged Plek2; conditions: FIG. 17
# Procedure: as §1, §2, §3
# Biophysical Assays and Counter-Screening. […]
# [5] = target: T2, Plek2 (Homo sapiens, UniProt Q9NYT0); test: Plek2-lipid binding (protein-lipid overlay); conditions: data not shown
# T2 construct: we examined the ability of full-length protein to adhere to various phospholipids
# T2 sequence (Q9NYT0 1-353): T1 sequence (Q9NYT0 1-353)
# Procedure: (§4) FIG. 7. Plek2 binds to PtdIns(3,4)P2 and is critical for the PI3K signaling pathway. […] (B) Plek2 membrane association and cell spreading are PI3K dependent. Jurkat cells expressing GFP fused to the amino-terminus of wild-type Plek2 were plated on fibronectin. Real-time confocal imaging of live cells was performed. Shown is a cell expressing Plek2 before and after inhibition of PI3K with 100 nM wortmannin. (C) Bone marrow lineage negative cells from the indicated mice were treated with 2 units erythropoietin for the indicated amount of time (minutes). The level of Phospho-Akt and total Akt were analysis by Western blot assays. (D) Same as C except wild type bone marrow cells were used. 10 μM NUP-17d was used. The levels of the indicated proteins were analyzed by Western blot assays. (E) Kaplan-Meier survival analysis of indicated mice. Ptenfl/fl mice were crossed with Mx-Cre and Plek2 whole body knockout mice. The deletion of Pten in the hematopoietic tissues was induced by poly-IC injection. N=5 in each group. P=0.0067 between Ptenfl/flMx-Cre and Ptenfl/flMx-Cre, Plek2 KO. (F) Hematoxylin and eosin stain of the lungs from representative mice in E. Scale bar: 100 μm.
# Rationale and Preliminary Data. […] To define the lipid binding specificity of Plek2, we examined the ability of full-length protein to adhere to various phospholipids.
# [6] = test system: phosphorylation of Akt; test: Akt phosphorylation in erythropoietin-treated bone marrow lineage negative cells (Western blot); format: cell-based, mouse; conditions: wild type bone marrow lineage negative cells, 10 μM
# Procedure: as §4
# To further determine the role of Plek2 in PI3K pathway, we overexpressed GFP-fusion Plek2 in Jurkat cells. […]
# [7] = test system: Epo-induced myeloproliferation in wild-type mice; test: Erythropoietin (Epo) injection mouse model; format: in vivo
# [8] = test system: JAK2V617F knockin mice; test: JAK2V617F knockin MPN mouse model; format: in vivo; conditions: 25 mg/kg once every two days, one month
# Procedure: FIG. 15A and FIG. 15B. Compound NUP-17d ameliorates myeloproliferation and thrombosis in JAK2^V617F knockin mice. FIG. 15A. RBC and WBC count of indicated mice after NUP-17d treatment. Two-month-old JAK2^V617F knockin mice were treated with NUP-17d once every two days for three weeks. Wild type (WT) littermate control mice were used for comparison *P<0.05; ** P<0.01; *** P<0.001. FIG. 15B. H&E stain of the spleen and lung sections. Inserted panels with high magnification reveal vascular occlusions. Scale bars: 100 μm.
# We tested the effects of Plek2 inhibitors in the JAK2^V617F knockin MPN mouse model. (See FIGS. 15A and 15B). The same dosage and dosing schedule of NUP-17d (25 mg/kg, once every two days) were applied to JAK2^V617F knockin mice as those applied to the Epo model. We have treated the mice for one month. […] (See FIG. 15A). […] (See FIG. 15B).
# [9] = FIG. 17, general method: MicroCal ITC200, 25° C
# [10] = 40 mg/kg every 2 days for 8 days
smiles,measurement,setting,value
CN1CCN(C(c2ccc(Cl)cc2)C(O)C(=O)c2c[nH]c3ccccc23)CC1 (stereo not shown) [17d],Kd,[1]; [9],0.4 µM
CN1CCN([C@@H](c2ccc(Cl)cc2)[C@H](O)C(=O)c2c[nH]c3ccccc23)CC1 [17d-1b],Kd,[1]; [9],0.357 µM
CN1CCN([C@H](c2ccc(Cl)cc2)[C@@H](O)C(=O)c2c[nH]c3ccccc23)CC1 [17d-1a],Kd,"[1]; FIG. 17, value printed in uM, general method: MicroCal ITC200, 25° C",2.12 µM
CN1CCN(C(c2ccc(Cl)cc2)C(O)C(=O)c2c[nH]c3ccccc23)CC1 (stereo not shown) [NUP-17d],IC50,[2],< 10000 nM
same,reversal of lamellipodia in Plek2 overexpressed Cos-7 cells,[3],more potent inhibition
same,ITC delta H,[4],-1.9 kcal/mol
same,ITC delta S,[4],+22.9 cal/molK
same,disruption of Plek2-lipid binding,[5],did not disrupt Plek2-lipid binding
same,phosphorylation of Akt,[6],significantly inhibited
same,Epo-induced erythrocytosis in spleen red pulp and lung vasculature (histology),[7]; [10],markedly ameliorated
same,Epo-induced leukocytosis,[7]; [10],significantly reduced
same,Epo-induced reticulocytosis,[7]; [10],significantly reduced
same,Epo-induced splenomegaly,[7]; [10],significantly reduced
same,Epo-induced vascular occlusions,[7]; [10],significantly reduced
same,tolerability,"[7]; 40 mg/kg, 2 days, preliminary studies",well-tolerated
same,red blood cell count,"[7]; Epo 5,000 U/kg every 2 days, compound 40 mg/kg every 2 days for 8 days, 3 weeks",did not significantly reduce
same,hematologic or other abnormalities in treated mice,[7]; during the experiments,no hematologic or other abnormalities
same,WBC count,[8],largely normalized
same,red blood cell count,[8],significantly reduced
same,side effects with the treatment,[8],no gross side effects
same,spleen size and extramedullary erythropoiesis,[8],markedly reduced
same,vascular occlusions in the lungs,[8],dramatically ameliorated
